Experiments:
Format in all cases: cell-based
[1] = system: klf2 promoter-luciferase construct in A204 cells; test: klf2 reporter gene induction (p21 versus klf2 selectivity); details: SNDX-275 p21/klf2 ratio defined as 1.0; for p21/klf2 (RP3): relative selectivity compared with SNDX-275: 3 micromolar; for p21/klf2 (RP10): relative selectivity compared with SNDX-275: 10 micromolar
Method: (§1) The novel compounds of the present invention were tested for their ability to induce p21 gene expression using a reporter gene assay involving HeLa cells transfected with a p21 promoter-luciferase construct. The p21 promoter contained the Sp1/Sp3 binding site for HDAC but not the upstream p53 binding site. Briefly, the day before transfection, HeLa cells were seeded at 11,000 cells/well in a 96-well culture plate and incubated at 37 degrees Celsius in 5% CO2 overnight. For transfection, the medium was removed and replaced with 100 microliters/well transfection media previously prepared as follows: 5 microliters serum-free DMEM, 0.15 microliters Fugene 6 reagent, 40 ng p21-luc, 10 ng GFP were mixed gently and incubated at room temperature for 30 minutes; then 98 microliters DMEM (with 10% FBS, 1% penicillin and streptomycin) was added to the DNA:Fugene 6 reagent complex and mixed gently. After incubating the cells for 24 hours at 37 degrees Celsius in 5% CO2, fresh media and test compounds were added to the wells and the cells further incubated for 15 hours at 37 degrees Celsius in 5% CO2. Cells were lysed by adding 80 microliters/well of a cell culture lysis reagent (Promega). 50 microliters of each lysate was taken for GFP detection using an excitation wavelength of 486 nm and detection at 527 nm. 100 microliters Luciferase assay reagent (Promega) was then added to every 20 microliters cell lysate for luminometer detection. […] Induction activity for specific representative compounds can be found in Table 4.
The novel compounds of the present invention were tested for their ability to induce klf2 gene expression using a reporter gene assay involving A204 cells transfected with a klf2 promoter-luciferase construct. The klf2 promoter contained the MEF2 binding site for HDAC3/class IIa HDAC complex. Briefly, the day before transfection, A204 cells were seeded at 11,000 cells/well in a 96-well culture plate and incubated at 37 degrees Celsius in 5% CO2 overnight. For transfection, the medium was removed and replaced with 100 microliters/well transfection media previously prepared as follows: 5 microliters serum-free DMEM, 0.15 microliters Fugene 6 reagent, 40 ng klf2-luc, 10 ng GFP were mixed gently and incubated at room temperature for 30 minutes; then 98 microliters DMEM (with 10% FBS, 1% penicillin and streptomycin) was added to the DNA:Fugene 6 reagent complex and mixed gently. After incubating the cells for 24 hours at 37 degrees Celsius in 5% CO2, fresh media and test compounds were added to the wells and the cells further incubated for 15 hours at 37 degrees Celsius in 5% CO2. Finally, 10 ng/ml TNF-α was added and the cells further incubated for 4 hours. Cells were lysed by adding 80 microliters/well of a cell culture lysis reagent (Promega). 50 microliters of each lysate was taken for GFP detection using an excitation wavelength of 486 nm and detection at 527 nm. 100 microliters Luciferase assay reagent (Promega) was then added to every 20 microliters cell lysate for luminometer detection.

[2] = system: HCT-116 colon cancer cells; test: Antiproliferative activity, growth inhibition (MTS/WST assay); details: Homo sapiens, 72 hour growth inhibition, read-out: GI50 HCT116
Method: The novel compounds of the present invention were tested for their ability to inhibit growth of various cancer cell lines (HeLa, MCF7, U2OS, HepG2, HL60, HCT-116) using in vitro growth inhibition assays described below.
Cells were seeded in 96-well culture plates (200 microliters/well at different seeding concentrations depending on cell type) and incubated overnight at 37 degrees Celsius in 5% CO2. After adding compound dilutions to the cells (DMSO concentration kept below 0.5%), the cells were incubated at 37 degrees Celsius in 5% CO2 for 72 hours. The effects on proliferation were determined by addition of MTS reagent (Promega) according to the manufacturer's instruction, followed by incubation for 2 hours at 37 degrees Celsius in 5% CO2, and finally recording the absorbance at 490 nm using an ELISA plate reader.
Similar to MTS assay except that the developer is the CCK-8 reagent (Dojindo) and the plate reader is set to 450 nm absorbance.
GI50 values against HCT-116 colon cancer cells for specific representative compounds can be found in Table 4.

[3] = system: p21 promoter-luciferase construct in HeLa cells; test: p21 reporter gene induction; details: 3 micromolar, 15 hours, relative to SNDX-275
Method: as §1

Row | Compound | p21/klf2 (RP3): relative selectivity compared with SNDX-275 [1] | p21/klf2 (RP10): relative selectivity compared with SNDX-275 [1] | GI50 [2] [nM] | p21 (RP3): relative induction potency compared with SNDX-275 [3] [%]
1 | CN(C)CCNC(C(=O)Nc1ccc(C(F)(F)F)cc1)c1ccc(/C=C/C(=O)Nc2ccccc2N)cc1 (stereo not shown) [Example 4-1, (E)-N-(2-Amino-phenyl)-3-{4-[(2-dimethylamino-ethylamino)-(4-trifluoromethyl-phenylcarbamoyl)-methyl]-phenyl}-acrylamide] | 1.4 | 5.5 | 700 | 300
2 | Nc1ccccc1NC(=O)/C=C/c1ccc(C(NCCN2CCCCC2)C(=O)Nc2ccc(C(F)(F)F)cc2)cc1 (stereo not shown) [Example 4-2, (E)-N-(2-Amino-phenyl)-3-{4-[(2-piperidin-1-yl-ethylamino)-(4-trifluoromethyl-phenylcarbamoyl)-methyl]-phenyl}-acrylamide] | 2.2 | 3.6 | 700 | 324
3 | N#Cc1ccc(NC(=O)C(NCCN2CCOCC2)c2ccc(/C=C/C(=O)Nc3ccccc3N)cc2)cc1 (stereo not shown) [Example 4-3, (E)-N-(2-Amino-phenyl)-3-{4-[(4-cyano-phenylcarbamoyl)-(2-morpholin-4-yl-ethylamino)-methyl]-phenyl}-acrylamide] | 0.8 | 1.2 | 1000 | 99
4 | Nc1ccccc1NC(=O)/C=C/c1ccc(C(NCCN2CCOCC2)C(=O)Nc2ccc(OC(F)(F)F)cc2)cc1 (stereo not shown) [Example 4-4, (E)-N-(2-Amino-phenyl)-3-{4-[(2-morpholin-4-yl-ethylamino)-(4-trifluoromethoxy-phenylcarbamoyl)-methyl]-phenyl}-acrylamide] | 1.2 | 3.1 | 1100 | 125
5 | Nc1ccccc1NC(=O)/C=C/c1ccc(C(NCCCN2CCOCC2)C(=O)Nc2ccc(C(F)(F)F)cc2)cc1 (stereo not shown) [Example 4-5, (E)-N-(2-Amino-phenyl)-3-{4-[(3-morpholin-4-yl-propylamino)-(4-trifluoromethyl-phenylcarbamoyl)-methyl]-phenyl}-acrylamide] | 1.2 | 4.5 | 800 | 241
6 | CN(C)CCNC(C(=O)Nc1ccc(OC(F)(F)F)cc1)c1ccc(/C=C/C(=O)Nc2ccccc2N)cc1 (stereo not shown) [Example 4-6, (E)-N-(2-Amino-phenyl)-3-{4-[(2-dimethylamino-ethylamino)-(4-trifluoromethoxy-phenylcarbamoyl)-methyl]-phenyl}-acrylamide] | 1.4 | 3.0 | 600 | 184
7 | Nc1ccccc1NC(=O)/C=C/c1ccc(C(NCCN2C[C@@H]3C[C@H]2CO3)C(=O)Nc2ccc(C(F)(F)F)cc2)cc1 (stereo partly drawn) [Example 4-12, (E)-N-(2-Amino-phenyl)-3-{4-[[(1S,4S)-2-(2-oxa-5-aza-bicyclo[2.2.1]hept-5-yl)-ethylamino]-(4-trifluoromethyl-phenylcarbamoyl)-methyl]-phenyl}-acrylamide] | 10.6 | 0.8 | 400 | 167
8 | Nc1ccccc1NC(=O)/C=C/c1ccc(C(NCCN2CCSCC2)C(=O)Nc2ccc(C(F)(F)F)cc2)cc1 (stereo not shown) [Example 4-14, (E)-N-(2-Amino-phenyl)-3-{4-[(2-thiomorpholin-4-yl-ethylamino)-(4-trifluoromethyl-phenylcarbamoyl)-methyl]-phenyl}-acrylamide] | 1.2 | 5.1 | 600 | 84
9 | Nc1ccccc1NC(=O)/C=C/c1ccc(C(NCCN2CCOCC2)C(=O)Nc2ccc(C(F)(F)F)cc2F)cc1 (stereo not shown) [Example 4-22, (E)-N-(2-Amino-phenyl)-3-{4-[(2-fluoro-4-trifluoromethyl-phenylcarbamoyl)-(2-morpholin-4-yl-ethylamino)-methyl]-phenyl}-acrylamide] | 1.8 | 2.0 | 1200 | 103
10 | CN(C)CCNC(C(=O)Nc1ccc(C(F)(F)F)cc1F)c1ccc(/C=C/C(=O)Nc2ccccc2N)cc1 (stereo not shown) [Example 4-24, (E)-N-(2-Amino-phenyl)-3-{4-[(2-dimethylamino-ethylamino)-(2-fluoro-4-trifluoromethyl-phenylcarbamoyl)-methyl]-phenyl}-acrylamide] | 1.5 | 1.5 | 2100 | 162
11 | Nc1ccccc1NC(=O)/C=C/c1ccc(C(NCCN2CCOCC2)C(=O)Nc2ccc(C(F)(F)F)c(Cl)c2)cc1 (stereo not shown) [Example 4-29, (E)-N-(2-Amino-phenyl)-3-{4-[(3-chloro-4-trifluoromethyl-phenylcarbamoyl)-(2-morpholin-4-yl-ethylamino)-methyl]-phenyl}-acrylamide] | 0.6 | 2.3 | 2100 | 48
12 | Nc1ccccc1NC(=O)/C=C/c1ccc(C(NCCN2CCCCC2)C(=O)Nc2ccc(Br)cc2)cc1 (stereo not shown) [Example 4-31, (E)-N-(2-Amino-phenyl)-3-{4-[(4-bromo-phenylcarbamoyl)-(2-piperidin-1-yl-ethylamino)-methyl]-phenyl}-acrylamide] | 1.2 | 1.2 | 200 | 178
13 | Nc1ccccc1NC(=O)/C=C/c1ccc(C(NCCN2CCCCC2)C(=O)Nc2ccc(C(F)(F)F)cc2F)cc1 (stereo not shown) [Example 4-35, (E)-N-(2-Amino-phenyl)-3-{4-[(2-fluoro-4-trifluoromethyl-phenylcarbamoyl)-(2-piperidin-1-yl-ethylamino)-methyl]-phenyl}-acrylamide] | 2.0 | 3.0 | 1300 | 140
